Data as given in article PMC3499409, “Direct Interaction between EgFABP1, a Fatty Acid Binding Protein from Echinococcus granulosus, and Phospholipid Membranes” (PLoS Neglected Tropical Diseases, 2012).

Tests used:
Type in all cases: binding
[1] = biological target: T1, EgFABP1 (Echinococcus granulosus, UniProt Q02970); experiment: fluorescence titration of the anthroyloxy fatty acid with protein
T1 construct: gene FABP1; recombinant EgFABP1 from pET11b in E. coli, delipidated

[2] = biological target: T2, EgFABP1 (Echinococcus granulosus, UniProt Q02970); experiment: protection from limited proteolysis (clostripain); GC of co-purified fatty acids
T2 construct: gene FABP1; recombinant EgFABP1 from pET11b in E. coli
T2 sequence (Q02970 1-133): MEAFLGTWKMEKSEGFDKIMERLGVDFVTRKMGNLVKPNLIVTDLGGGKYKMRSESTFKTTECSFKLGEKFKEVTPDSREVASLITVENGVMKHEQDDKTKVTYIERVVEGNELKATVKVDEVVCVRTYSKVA

[3] = biological target: T2, EgFABP1; experiment: near-UV CD change; protection from limited proteolysis (clostripain); GC of co-purified fatty acids

| SMILES | Kd [1] [nM] | also measured |
| --- | --- | --- |
| CCCCCCC(CCCCCCCCCCC(=O)O)OC(=O)c1c2ccccc2cc2ccccc12 (stereo not shown) [12AS, 12-(9-anthroyloxy)stearic acid] | 120 ± 20 |  |
| O=C(O)CCCCCCCCCCCCCCCOC(=O)c1c2ccccc2cc2ccccc12 [16AP, 16-(9-anthroyloxy)palmitic acid] | 13 ± 6 |  |
| CCCCCCCCCCCCCC(=O)O [myristic acid] |  | protection from limited proteolysis (clostripain); GC of co-purified fatty acids [2]: Results show that binding of FAs gives EgFABP1 significant relative protection against cleavage |
| CCCCCCCC/C=C\CCCCCCCC(=O)O [oleic acid] |  | near-UV CD change; protection from limited proteolysis (clostripain); GC of co-p [3]: the near-UV CD spectra (Figure S1) showed differences upon ligand binding, especially with oleic acid |
